In US12186310B2, “Antibody-drug conjugate” (DAIICHI SANKYO COMPANY, LIMITED, priority 2012, dated 2025):
Like-named read-outs stand apart in the source and are kept apart here.

Tests used:
A375 cells = assay: Cytotoxicity test (8) of released drug; assay type: cell-based; settings: Homo sapiens, A-375, 144 h, read-out: IC50, cytotoxic activity against the A375 cells
Description: A375 cells (ATCC) were cultured in DMEM (GIBCO) containing 10% fetal bovine serum (MOREGATE) (hereinafter, referred to as a medium). The A375 cells were prepared to have a concentration of 4×10^4 cells/mL by using a medium, added at a concentration of 25 μL/well to a 96-well microplate for cell culture (CORNING) charged with […] of a medium, and cultured overnight. On the next day, each test substance diluted into 1000 nM, 200 nM, 40 nM, 8 nM, 1.6 nM, 0.32 nM, and 0.064 nM by using DMSO was added at a concentration of 0.5 μL/well to the microplate. DMSO was added at a concentration of 0.5 μL/well to test substance non-supplemented wells. The volume of the medium in each well was adjusted to 100 μL by the addition of 10 μL/well of a medium, and the cells were cultured under 5% CO2 at 37° C. for 6 days. After the culture, the microplate was taken out from the incubator and left standing at room temperature for 30 minutes. The culture solution was charged with an equal amount of CellTiter-Glo Luminescent Cell Viability Assay (Promega) and stirred. After the microplate was left standing at room temperature for 10 minutes, the amount of light emission was measured by using a plate reader. The IC50 value was calculated according to the following equation: IC50(nM)=antilog((50−d)×(LOG10b−LOG10a)/(d−c)+LOG10b) • a: Concentration a of the test substance • b: Concentration b of the test substance • c: Ratio of live cells supplemented with the test substance having the concentration a • d: Ratio of live cells supplemented with the test substance having the concentration b
The concentrations a and b establish the relation a>b crossing 50% ratio of live cells.
The survival rate of cells was calculated according to the following equation: Survival rate of cells (%)=a/b×100 • a: Average amount of light emission from the test substance-supplemented wells (n=2) • b: Average amount of light emission from the test substance non-supplemented wells (n=10)

[1] = Self-degradation of released drug derivative with aminal structure; assay type: physicochemical; settings: undergoes a self-degradation to release HO—CH2—C(═O)—(NH-DX)
human tumor = human tumor subcutaneously transplanted mouse model; cited from earlier work
topoisomerase I = target: T1, topoisomerase I (Homo sapiens, UniProt P11387); settings: compared with SN-38 and topotecan; cited from earlier work
T1 sequence (P11387 1-765): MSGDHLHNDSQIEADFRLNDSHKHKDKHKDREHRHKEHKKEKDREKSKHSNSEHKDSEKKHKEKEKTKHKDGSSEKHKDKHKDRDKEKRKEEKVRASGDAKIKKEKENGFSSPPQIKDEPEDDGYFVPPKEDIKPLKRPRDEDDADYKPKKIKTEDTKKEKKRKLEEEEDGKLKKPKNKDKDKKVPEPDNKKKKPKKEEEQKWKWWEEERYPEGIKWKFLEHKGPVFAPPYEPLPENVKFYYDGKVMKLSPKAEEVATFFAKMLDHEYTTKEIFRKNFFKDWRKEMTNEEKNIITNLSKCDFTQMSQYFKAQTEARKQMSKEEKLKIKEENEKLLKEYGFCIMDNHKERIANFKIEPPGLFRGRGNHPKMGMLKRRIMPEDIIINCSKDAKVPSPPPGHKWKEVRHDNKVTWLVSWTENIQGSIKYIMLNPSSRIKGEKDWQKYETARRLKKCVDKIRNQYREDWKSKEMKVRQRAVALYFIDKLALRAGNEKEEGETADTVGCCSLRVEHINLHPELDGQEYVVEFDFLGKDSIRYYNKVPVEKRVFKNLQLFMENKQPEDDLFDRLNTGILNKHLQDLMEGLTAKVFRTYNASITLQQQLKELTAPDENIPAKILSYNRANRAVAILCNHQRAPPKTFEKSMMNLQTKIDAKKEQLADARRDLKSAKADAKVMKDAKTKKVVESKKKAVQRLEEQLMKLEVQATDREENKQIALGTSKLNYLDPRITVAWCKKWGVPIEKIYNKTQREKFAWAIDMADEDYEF

various cancer cells = settings: against various cancer cells; cited from earlier work
[2] = tested on: Human non-small cell lung cancer line Calu-6 cells; assay: Antitumor test (3), subcutaneously transplanted Calu-6; assay type: in vivo, mouse; settings: Calu-6 subcutaneous, female nude mice; 10 mg/kg intravenously at Days 11, 18, and 25 (qw×3); FIG. 19
Description: Assay and calculation expression: In all studies, the major axis and minor axis of tumor were measured twice a week by using an electronic digital caliper (CD-15C, Mitutoyo Corp.), and the tumor volume (mm^3) was calculated. The calculation expression is as shown below. Tumor volume (mm^3)=½×Major axis (mm)×[Minor axis (mm)]^2
Human non-small cell lung cancer line Calu-6 cells were purchased from ATCC (American Type Culture Collection). 5×10^6 cells suspended in physiological saline were subcutaneously transplanted to the right abdomen of each female nude mouse (Day 0), and the mice were randomly grouped at Day 11.

[3] = tested on: Human melanoma line A375 cells; assay: Antitumor test (1), subcutaneously transplanted A375; assay type: in vivo, mouse; settings: A375 subcutaneous, female nude mice; 10 mg/kg intravenously at Days 11, 18, and 25; FIG. 17
Description: Mouse: 5- to 6-week-old female BALB/c nude mice (Charles River Laboratories Japan, Inc.) were acclimatized for 4 to 7 days under SPF conditions before use in the experiment. The mice were fed with sterilized solid feed (FR-2, Funabashi Farms Co., Ltd) and given sterilized tap water (prepared by the addition of 5 to 15 ppm sodium hypochlorite solution). Assay and calculation expression: In all studies, the major axis and minor axis of tumor were measured twice a week by using an electronic digital caliper (CD-15C, Mitutoyo Corp.), and the tumor volume (mm^3) was calculated. The calculation expression is as shown below. Tumor volume (mm^3)=1⁄2×Major axis (mm)×[Minor axis (mm)]^2 All of the antibody-drug conjugates were diluted with physiological saline (Otsuka Pharmaceutical Factory, Inc.) and used at a volume of 10 mL/kg for intravenous administration to the tail of each mouse. Human melanoma line A375 cells were purchased from ATCC (American Type Culture Collection). 8×10^6 cells suspended in physiological saline were subcutaneously transplanted to the right abdomen of each female nude mouse (Day 0), and the mice were randomly grouped at Day 11.

Molecule: CC[C@@]1(O)C(=O)OCc2c1cc1n(c2=O)Cc2c-1nc1cc(F)c(C)c3c1c2[C@@H](NC(=O)CCCN)CC3 [Example (1), 4-Amino-N-[(1S,9S)-9-ethyl-5-fluoro-9-hydroxy-4-methyl-10,13-dioxo-2,3,9,10,13,15-hexahydro-1H,12H-benzo[de]pyrano[3′,4′:6,7]indolizino[1,2-b]quinolin-1-yl]butanamide]
- IC50 (A375 cells): 10 to 100 nM

Molecule: CC[C@@]1(O)C(=O)OCc2c1cc1n(c2=O)Cc2c-1nc1cc(F)c(C)c3c1c2[C@@H](NC(=O)COCCN)CC3 [Example (42), 2-(2-Aminoethoxy)-N-[(1S,9S)-9-ethyl-5-fluoro-9-hydroxy-4-methyl-10,13-dioxo-2,3,9,10,13,15-hexahydro-1H,12H-benzo[de]pyrano[3′,4′:6,7]indolizino[1,2-b]quinolin-1-yl]acetamide]
- IC50 (A375 cells): 1 to 10 nM

Molecule: CCC1(O)C(=O)OCc2c1cc1n(c2=O)Cc2c-1nc1cc(F)c(C)c3c1c2C(NC(=O)COCN)CC3 (stereo not shown) [NH2—CH2—O—CH2—C(═O)—(NH-DX)]
- stability of the aminal structure in the molecule [1]: unstable

Molecule: CC[C@@]1(O)C(=O)OCc2c1cc1n(c2=O)Cc2c-1nc1cc(F)c(C)c3c1c2[C@@H](N)CC3 [exatecan, (1S,9S)-1-amino-9-ethyl-5-fluoro-2,3-dihydro-9-hydroxy-4-methyl-1H,12H-benzo[de]pyrano[3′,4′:6,7]indolizino[1,2-b]quinolin-10,13(9H,15H)-dione]
- antitumor effect (human tumor): potent antitumor effect
- inhibitory activity on topoisomerase I (topoisomerase I): higher than SN-38
- IC50 (A375 cells; released drug, cultured 6 days, CellTiter-Glo): 0.1 to 1 nM
- in vitro cytocidal activity (various cancer cells): higher in vitro cytocidal activity

Molecule: CC[C@@]1(O)C(=O)OCc2c1cc1n(c2=O)Cc2c-1nc1cc(F)c(C)c3c1c2[C@@H](NC(=O)CO)CC3 [Example (75), N-[(1S,9S)-9-ethyl-5-fluoro-9-hydroxy-4-methyl-10,13-dioxo-2,3,9,10,13,15-hexahydro-1H,12H-benzo[de]pyrano[3′,4′:6,7]indolizino[1,2-b]quinolin-1-yl]-2-hydroxyacetamide]
- IC50 (A375 cells): 0.1 to 1 nM

B1: M30-H1-L4P antibody: M30-H1-L4 antibody with the modification of a glycan regulated by defucosylation (antibody, chains of the INN, looked up, V domains shown)
VH: QVQLVQSGAEVKKPGSSVKVSCKASGYTFTNYVMHWVRQAPGQGLEWMGYINPYNDDVKYNEKFKGRVTITADESTSTAYMELSSLRSEDTAVYYCARWGYYGSPLYYFDYWGQGTLVTVSS
VL: EIVLTQSPATLSLSPGERATLSCRASSRLIYMHWYQQKPGQAPRPLIYATSNLASGIPARFSGSGSGTDFTLTISSLEPEDFAVYYCQQWNSNPPTFGQGTKVEIK
modifications: defucosylated
notes: M30-H1-L4 antibody with the modification of a glycan regulated by defucosylation
- tumor volume [2]: progression of tumor growth
- tumor volume [3]: progression of tumor growth
